Patent publication US10881110B2, “Herbicidal compositions comprising isoxazolo[5,4-b]pyridines” (BASF SE, priority 2014, dated 2021)

Key:
Test in all cases: greenhouse post-emergence herbicidal test
[1] = tested on: DIGSA; assay type: in vivo, Digitaria sanguinalis
Description: (§1) The culture containers used were plastic pots containing medium loamy sand with approximately 4.6% of humus and 69.9% sand as substrate. The seeds of the test plants were sown separately for each species.
(§2) For the post-emergence treatment, the test plants were grown to a plant height of from 1 to 15 cm, depending on the plant habit, and only then treated with the active compounds which had been suspended or emulsified in water. To this end, the test plants were either sown directly, and grown in the same containers, or they were first grown separately as seedlings and transplanted into the test containers a few days prior to treatment.
(§3) Depending on the species, the plants were kept at 10-25° C. and 20-35° C., respectively.
(§4) The test period extended over 1 to 3 weeks. During this time, the plants were tended and their response to the individual treatments was evaluated 20 days after treatment except mentioned otherwise.
(§5) Evaluation was carried out using a scale from 0 to 100. 100 means no emergence of the plants, or complete destruction of at least the above-ground parts, and 0 means no damage or normal course of growth.
(§6) The respective stated components A and B, and, if appropriate, C, were formulated as a 10% by weight strength emulsion concentrate and, with addition of the amount of solvent system, introduced into the spray liquor used for applying the active compound. In the examples, the solvent used was water.
(§7) In the examples below, using the method of S. R. Colby (1967) “Calculating synergistic and antagonistic responses of herbicide combinations”, Weeds 15, p. 22 ff., the value E, which is expected if the activity of the individual active compounds is only additive, was calculated. E=X+Y−(X·Y/100)

[2] = tested on: ERICA; assay type: in vivo, Conyza canadensis; parameters: key to herbicidal activity against ERICA found: rating on a scale from 0 to 100; conditions: post emergence
How it was run: (§8)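 Test plants, sown directly or transplanted a few days earlier, are treated at 1–15 cm height with emulsified or suspended actives in water. Temperatures run 10-25° C or 20-35° C by species; injury is scored 0–100 twenty days after spraying.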

[3] = tested on: CONAR; assay type: in vivo, Convolvulus arvensis; parameters: key: rating on a scale from 0 to 100
Description: as §1, §2, §3, §4, §5, §6, §7

[4] = tested on: AMARE; assay type: in vivo, Amaranthus retroflexus
Description: as §1, §2, §3, §4, §5, §6, §7

[5] = tested on: CHEAL; assay type: in vivo, Chenopodium album
Description: as §1, §2, §3, §4, §5, §6, §7

[6] = tested on: GERDI; assay type: in vivo, Geranium dissectum; parameters: key to herbicidal activity against GERDI found: rating on a scale from 0 to 100; conditions: post emergence
How it was run: as §8

[7] = tested on: SASKR; assay type: in vivo, Salsola kali; parameters: key: scale 0 to 100
Description: as §1, §2, §3, §4, §5, §6, §7

[8] = tested on: PAPRH; assay type: in vivo, Papaver rhoeas; parameters: key: rating on a scale from 0 to 100
How it was run: as §8

[9] = tested on: MATCH; assay type: in vivo, Matricaria recutita; parameters: key to herbicidal activity against MATCH found: rating on a scale from 0 to 100; conditions: post emergence
How it was run: as §8

[10] = tested on: AMBEL; assay type: in vivo, Ambrosia artemisiifolia; parameters: key: rating on a scale from 0 to 100
Description: as §1, §2, §3, §4, §5, §6, §7

[11] = tested on: VIOAR; assay type: in vivo, Viola arvensis; parameters: key to herbicidal activity against VIOAR found / herbicidal activity against VIOLA found: rating on a scale from 0 to 100; conditions: post emergence
How it was run: (§9)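 Herbicidal activity scored on a 0 (no damage) to 100 (plants destroyed) scale, usually 20 days after water-based spraying of 1–15 cm plants grown in loamy sand at 10-25 °C or 20-35 °C depending on species. Components were applied from 10% emulsion concentrates; Colby's E=X+Y−(X·Y/100) gives the additive expectation.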

[12] = tested on: POLPE; assay type: in vivo, Persicaria maculosa; parameters: key: scale 0 to 100
Description: as §1, §2, §3, §4, §5, §6, §7

[13] = tested on: STEME; assay type: in vivo, Stellaria media; parameters: key: scale 0 to 100
Description: as §1, §2, §3, §4, §5, §6, §7

[14] = tested on: LAMAM; assay type: in vivo, Lamium amplexicaule; parameters: key: scale 0 to 100
Description: as §1, §2, §3, §4, §5, §6, §7

[15] = tested on: POLAV; assay type: in vivo, Polygonum aviculare; parameters: key: rating on a scale from 0 to 100
Description: as §1, §2, §3, §4, §5, §6, §7

[16] = tested on: ABUTH; assay type: in vivo, Abutilon theophrast; parameters: key to herbicidal activity against ABUTH found: rating on a scale from 0 to 100; conditions: post emergence; 200 g/ha a.i.
How it was run: as §8

[17] = tested on: GALAP; assay type: in vivo, Galium aparine; parameters: key to herbicidal activity against GALAP found: rating on a scale from 0 to 100; conditions: post emergence
How it was run: as §9

[18] = tested on: POLCO; assay type: in vivo, Polygonum convolvulus; parameters: key to herbicidal activity against POLCO found: rating on a scale from 0 to 100; conditions: post emergence
How it was run: as §9

[19] = tested on: LOLMU; assay type: in vivo, Lolium multiflorum; conditions: a.i. g/ha: I.1 62.5, B.77 75, 20 days after treatment
Description: as §1, §2, §3, §4, §5, §6, §7

[20] = tested on: ECHCG; assay type: in vivo, Echinochloa crus-galli; parameters: key to herbicidal activity against ECHCG found / herbicidal activity against ECHCH found: scale 0 to 100; conditions: post emergence; application rate a.i.: I.1 250 g/ha, B.193 15 g/ha, alone or as mixture (composition 1.193)
How it was run: as §8

[21] = tested on: ALOMY; assay type: in vivo, Alopecurus myosuroides; parameters: key to herbicidal activity against ALOMY found: rating on a scale from 0 to 100; conditions: post emergence; application rate a.i.: I.1 250 g/ha, B.193 15 g/ha, alone or as mixture (composition 1.193)
How it was run: as §8

[22] = tested on: IPOHE; assay type: in vivo, Ipomoea hederacea; parameters: key to herbicidal activity against IPOHE found: rating on a scale from 0 to 100; conditions: post emergence, 20 days after treatment
How it was run: as §9

[23] = a.i. g/ha: I.1 62.5, B.80 250, 20 days after treatment
[24] = a.i. g/ha: I.1 31.25, B.76 225, 20 days after treatment
[25] = a.i. g/ha: I.1 62.5, B.76 225, 20 days after treatment
[26] = a.i. g/ha: I.1 31.25, bentazon Na 125, 20 days after treatment
[27] = a.i. g/ha: I.1 62.5, B.77 75, 20 days after treatment
[28] = application rate a.i.: I.1 250 g/ha, B.193 15 g/ha, alone or as mixture (composition 1.193)
[29] = a.i. g/ha: I.1 31.25, B.190 62.5, 20 days after treatment
[30] = a.i. g/ha: I.1 15.6, B.190 62.5, 20 days after treatment

Structure (SMILES): CCC(=O)Nc1ccc(Cl)c(Cl)c1 [B.80, propanil]
- herbicidal activity against DIGSA found [1, 23]: 40%
- herbicidal activity against ERICA found [2, 23]: 65%
- herbicidal activity against CONAR found [3, 23]: 20%

Structure (SMILES): CC(C)c1ccc(NC(=O)N(C)C)cc1 [B.76, isoproturon]
- herbicidal activity against DIGSA found [1, 24]: 30%
- herbicidal activity against DIGSA found [1, 25]: 30%
- herbicidal activity against AMARE found [4, 24]: 50%
- herbicidal activity against CONAR found [3, 25]: 65%
- herbicidal activity against CHEAL found [5, 24]: 65%
- herbicidal activity against CHEAL found [5, 25]: 65%

Structure (SMILES): CS(=O)(=O)c1ccc(C(=O)C2C(=O)CCCC2=O)c([N+](=O)[O-])c1 [B.101, mesotrione]
- pest or weed control at 9.375 g/ha ([6]; Geranium dissectum, post-emergence, 480 h, 9.375 g/ha a.i., read-out: herbicidal activity against GERDI found): 0%
- herbicidal activity against SASKR found ([7]; 9.375 g/ha a.i.): 75
- pest or weed control at 9.375 g/ha ([2]; Erigeron canadensis, post-emergence, 480 h, 9.375 g/ha a.i., read-out: herbicidal activity against ERICA found): 80%
- herbicidal activity against PAPRH found ([8]; 9.375 g/ha a.i.): 35
- pest or weed control at 9.375 g/ha ([9]; Matricaria chamomilla, post-emergence, 480 h, 9.375 g/ha a.i., read-out: herbicidal activity against MATCH found): 75%
- herbicidal activity against AMBEL found ([10]; 9.375 g/ha a.i.): 80

Structure (SMILES): Cc1cc(Cl)ccc1OCC(=O)O [B.164, MCPA]
- herbicidal activity against GERDI found ([6]; 100 g/ha a.i.): 65
- herbicidal activity against VIOAR found ([11]; 100 g/ha a.i.): 60
- herbicidal activity against VIOAR found ([11]; 200 g/ha a.i.): 65
- herbicidal activity against VIOAR found ([11]; 400 g/ha a.i.): 70
- herbicidal activity against POLPE found ([12]; 200 g/ha a.i.): 65
- herbicidal activity against POLPE found ([12]; 400 g/ha a.i.): 80
- herbicidal activity against CONAR found ([3]; 200 g/ha a.i.): 90
- herbicidal activity against CONAR found ([3]; 400 g/ha a.i.): 90
- herbicidal activity against PAPRH found ([8]; 100 g/ha a.i.): 60
- herbicidal activity against PAPRH found ([8]; 200 g/ha a.i.): 65
- herbicidal activity against STEME found ([13]; 100 g/ha a.i.): 50
- herbicidal activity against STEME found ([13]; 200 g/ha a.i.): 60
- herbicidal activity against STEME found ([13]; 400 g/ha a.i.): 80
- herbicidal activity against LAMAM, found ([14]; 200 g/ha a.i.): 65
- herbicidal activity against LAMAM, found ([14]; 400 g/ha a.i.): 70
- herbicidal activity against POLAV found ([15]; 100 g/ha a.i.): 70
- herbicidal activity against POLAV found ([15]; 200 g/ha a.i.): 85
- herbicidal activity against POLAV found ([15]; 400 g/ha a.i.): 85
- herbicidal activity against ABUTH found [16]: 80
- herbicidal activity against MATCH found ([9]; 400 g/ha a.i.): 50
- herbicidal activity against GALAP found ([17]; 400 g/ha a.i.): 30
- herbicidal activity against POLCO found ([18]; 200 g/ha a.i.): 50
- herbicidal activity against POLCO found ([18]; 400 g/ha a.i.): 50

Structure (SMILES): CC(C)N1C(=O)c2ccccc2[N-]S1(=O)=O.[Na+] [bentazon Na, bentazon-sodium]
- herbicidal activity against AMARE found [4, 26]: 75%
- herbicidal activity against POLAV found [15, 26]: 40%
- herbicidal activity against POLCO found [18, 26]: 40%

Structure (SMILES): COc1cc(OC)nc(NC(=O)NS(=O)(=O)c2ncccc2C(=O)N(C)C)n1 [B.51, nicosulfuron]
- herbicidal activity against POLPE found ([12]; 20 g/ha a.i.): 95
- pest or weed control at 20 g/ha ([9]; Matricaria chamomilla, post-emergence, 480 h, 20 g/ha a.i., read-out: herbicidal activity against MATCH found): 90%
- herbicidal activity against AMBEL found ([10]; 20 g/ha a.i.): 80

Structure (SMILES): CON(C)C(=O)Nc1ccc(Cl)c(Cl)c1 [B.77, linuron]
- herbicidal activity against LOLMU found [19]: 35%
- herbicidal activity against CONAR found [3, 27]: 50%
- herbicidal activity against GALAP found [17, 27]: 40%

Structure (SMILES): Cc1nn(C)c(O)c1C(=O)c1ccc(C(F)(F)F)cc1S(C)(=O)=O [pyrasulfatole]
- herbicidal activity against GERDI found ([6]; 40 g/ha a.i.): 50
- herbicidal activity against SASKAR found ([7]; 10 g/ha a.i.): 90
- herbicidal activity against VIOAR found ([11]; 10 g/ha a.i.): 0
- herbicidal activity against VIOAR found ([11]; 20 g/ha a.i.): 40
- herbicidal activity against VIOAR found ([11]; 40 g/ha a.i.): 60
- herbicidal activity against CONAR found ([3]; 10 g/ha a.i.): 60
- herbicidal activity against CONAR found ([3]; 20 g/ha a.i.): 65
- herbicidal activity against CONAR found ([3]; 40 g/ha a.i.): 85
- herbicidal activity against PAPRH found ([8]; 10 g/ha a.i.): 50
- herbicidal activity against PAPRH found ([8]; 20 g/ha a.i.): 65
- herbicidal activity against PAPRH found ([8]; 40 g/ha a.i.): 65
- herbicidal activity against POLAV found ([15]; 20 g/ha a.i.): 70
- herbicidal activity against MATCH found ([9]; 10 g/ha a.i.): 50
- herbicidal activity against MATCH found ([9]; 40 g/ha a.i.): 50

Structure (SMILES): Cc1ccccc1CO[C@H]1C[C@]2(C(C)C)CC[C@@]1(C)O2 (racemic) [B.193]
- herbicidal activity against GERDI found [6, 28]: 40
- herbicidal activity against ECHCG found [20]: 40
- herbicidal activity against DIGSA found [1, 28]: 20
- herbicidal activity against ALOMY found [21]: 0

Structure (SMILES): Cc1ccc(NC(=O)N(C)C)cc1Cl [B.190, chlorotoluron]
- herbicidal activity against GERDI found [6, 29]: 60%
- herbicidal activity against IPOHE found ([22]; a.i. g/ha: I.1 15.6, B.190 62.5): 60%
- herbicidal activity against IPOHE found ([22]; a.i. g/ha: I.1 31.25, B.190 62.5): 60%
- herbicidal activity against AMARE found [4, 30]: 40%
- herbicidal activity against AMARE found [4, 29]: 40%
- herbicidal activity against STEME found [13, 29]: 70%
- herbicidal activity against CHEAL found [5, 30]: 95%
- herbicidal activity against POLAV found [15, 30]: 50%
- herbicidal activity against POLCO found [18, 30]: 50%
- herbicidal activity against POLCO found [18, 29]: 50%
